From patent publication US20060154919A1, “Combination of a glycine transporter (GLYT1) inhibitor and an antipsychotic for the treatment of symptoms of schizophrenia as well as its preparation and use thereof” (priority 2004, published 2006)
“Also recorded” adds a separate entry of the source.

Key:
[1] = tested on: extracellular dopamine in the striatum; test: Microdialysis: extracellular dopamine in the rat striatum; assay type: in vivo; details: for dose-response of extracellular dopamine: ascending doses (COMPOUND NO. 1 0.63, 2.5, 10 mg/kg; risperidone 0.16, 0.63, 2.5 mg/kg)
Experimental: (§1) Compounds (as a Na salt) were stored, dissolved, and administered according to detailed instructions accompanying each compound. Compounds were dissolved in a solvent consisting of 10% BCD (beta cyclodextrin) and administered subcutaneously.
(§2) Male Sprague Dawley rats weighing 275-325 g at the start of the experiment were individually housed in a temperature-controlled colony room with a 12-h light/dark cycle. Food and water was available ad libitum throughout the experiment. The housing conditions and care of the animals were in accordance with the “Guide for the Care and Use of Laboratory Animals” (Institute of Laboratory Animal Resources on Life Sciences, National Research Council, 1996).
(§3) Guide cannula were stored in 95% ETOH prior to surgery, whereas surgical tools underwent heat sterilization (250 °C) immediately before each surgery. Rats were anesthetized using a ketamine hydrochloride (100 mg/kg, IP) xylazine (12 mg/kg) mixture. After adequate anesthesia had been determined (using toe and tail pinch procedures), rats were placed into a stereotaxic instrument. The skull region was wiped with a 2% Betadine solution and a rostrocaudal incision was made to expose the surface of the skull. Bilateral guide cannula (20 gauge; Plastics One) were chronically implanted over the medial striatum (A/P: +0.5, M/L: ±2.5, D/V: −2.0; Paxinos & Watson, 1998) and secured using four skull screws and cranioplastic cement. The cannula need to be implanted at an angle to obtain the minimum inter-cannula distance needed for our probe leash used during microdialysis sampling. Following surgery, body temperature was maintained using a heating pad and the rats were monitored until fully conscious. Rats were then individually housed and assessed daily by monitoring general activity, body weight, and feces. Rats were monitored for signs of an infection and cefazolin (100 mg/kg; intramuscular) was available as needed. Notation was made of any animal administered antibiotic.
(§4) Rats were given at least five days to recover prior to microdialysis sampling. Approximately 18 hr prior to sampling, a microdialysis probe (24 gauge; 2-3 mm exposed membrane; 13000 MWCO) encased in a spring leash and attached to a liquid swivel connected to a balancing arm was inserted into the guide cannula of an awake rat. The probe was secured in place by screwing a threaded portion of the probe leash onto the guide cannula. The rat was then placed into a behavioral chamber (Omnitech, Columbus Ohio) equipped with a fan and house light (10W), and food and water was available ad libitum. On the day of the experiment, dialysis buffer consisting of 5 mM glucose, 140 mM NaCl, 1.4 mM CaCl2, 1.2 mM MgCl2, and 0.15% phosphate buffer saline, pH 7.4, was perfused through the probe (2.0 μl/min) at least two hr prior to sample collection. Twenty-min dialysis samples were then collected for two hr to determine basal glycine levels. Rats were then injected (intraperitoneal) with vehicle or one dose of the test compound, and 30-min samples were collected for up to 10 hr. Samples were split for separate chromatographic evaluation of glycine and dopamine, and frozen (−80 °C) until analyzed.
(§5) Rats, with the dialysis probes in place, were given an overdose of pentobarbital, and the brains fixed by intracardiac infusion of PBS-formalin. Coronal brain sections were 100 μM thick and stained with cresyl violet to verify probe placements. Probes were left in place as the animal was perfused in order to check for the presence of blood in the probe tract.
For dopamine analysis, samples were placed in an ESA (Chelmsford, Mass.) Model 540 autosampler connected to an HPLC system with electrochemical detection. Separation was achieved by pumping the samples through a 15 cm C18 reversed phase column (ESA, Inc.) and then samples were reduced/oxidized using coulometric detection.

[2] = tested on: extracellular glycine in the striatum; test: Microdialysis: extracellular glycine in the rat striatum; assay type: in vivo; details: for dose-response of extracellular glycine: ascending doses (COMPOUND NO. 1 0.63, 2.5, 10 mg/kg; risperidone 0.16, 0.63, 2.5 mg/kg)
Experimental: as §1, §2, §3, §4, §5
The concentrations of glycine and dopamine in dialysate samples was determined using a Waters Alliance 2690 HPLC system with fluorometeric detection or an ESA coulometric electrochemical detection HPLC system, respectively. Dialyis samples were split between the two systems enabling both dopamine and glycine to be measured in each sample. A Waters Spherisorb ODS2 column (5 μM, 4.6×250 mm) was used to separate the amino acids.

[3] = COMPOUND NO. 1 alone, 10 mg/kg (highest dose), 10 mg/kg
[4] = risperidone alone, 0.16 mg/kg (lowest dose)

CN(C/C=C(/C#Cc1ccc(-c2ccoc2)cc1)c1ccccc1)CC(=O)O [COMPOUND NO. 1]
reduction in extracellular dopamine ([1]; COMPOUND NO. 1 alone, 0.63 mg/kg (lowest dose)): ~50%
effect on extracellular dopamine ([1]; COMPOUND NO. 1 alone, 0.63 mg/kg (lowest dose), 0.63 mg/kg): significant reduction; also recorded: reduced extracellular dopamine
effect on extracellular dopamine ([1]; COMPOUND NO. 1 alone, 2.5 mg/kg): normalized; also recorded: returned to normal
effect on extracellular dopamine [1, 3]: remained unaltered; also recorded: without effect
dose-response of extracellular dopamine [1]: biphasic
increase in extracellular glycine [2, 3]: 2.5 fold
dose-response of extracellular glycine [2]: dose-dependent increase; also recorded: dose-dependent elevation

Cc1nc2n(c(=O)c1CCN1CCC(c3noc4cc(F)ccc34)CC1)CCCC2 [risperidone, 3-[2-[4-(6-fluoro-1,2-benzisoxazol-3-yl)piperidino]ethyl]-2-methyl-6,7,8,9-tetrahydro-4H-pyrido-[1,2-a]pyrimidin-4-one, reference compound]
dose-response of extracellular dopamine [1]: dose-dependent elevation
threshold dose for elevation in extracellular dopamine ([1]; risperidone alone): 0.16 mg/kg
elevation in extracellular dopamine [1, 4]: approximately 50%
expected increase in extracellular dopamine ([1]; risperidone alone, 1.0 mg/kg, expected from FIGS. 1C-1D): 300%
increase in extracellular dopamine ([1]; risperidone alone, two higher doses (0.63 and 2.5 mg/kg)): 3-4 fold
dose-response of extracellular glycine [2]: dose-dependent elevation
threshold dose for elevation in extracellular glycine ([2]; risperidone alone): 0.16 mg/kg
effect on extracellular glycine [2, 4]: without effect
increase in extracellular glycine ([2]; risperidone alone, 2.5 mg/kg (highest dose)): 2.5 fold
effect on extracellular glycine ([2]; risperidone alone, at the dose examined in the combination (1.0 mg/kg)): modest rise
